Assay results taken from patent US8119630B2 (Arrow Therapeutics Limited, priority 2002, dated 2012).

Tests used:
RSV = test: XTT assay, RSV-infected Hep-2 cells; format: cell-based, Respiratory Syncytial Virus (RSV); conditions: Table 2, Examples 75 to 82 and 125 to 184, Hep-2 cells infected with RSV, 6 days at 37° C.
Procedure, shortened: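 Hep-2 cells (4×10^4/well) infected with RSV titrated for 80% cell kill and treated with 25 μM compound (0.5% DMSO) for 6 days at 37 °C. Viability read by XTT/PMS at OD450 after 1 h; uninfected control set as 100% and infected control as 0% inhibition, with IC50 from graph or regression.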

Hep-2 cells = test: Toxicity studies (XTT), Hep-2 cells; format: cell-based; parameters: TC50 (6d): unit not given beside the values; conditions: for TC50 (2d): Table 2, Examples 75 to 82 and 125 to 184, 2d; for TC50 (6d): Table 2, Examples 75 to 82 and 125 to 184, 6d, in µM
[1] = human respiratory syncytial virus, 144 h

O=C(NC1N=C(c2ccccc2)c2ccc(Cl)cc2NC1=O)C1CCCCC1 (centres unmarked) [Example 168, Cyclohexanecarboxylic acid (8-chloro-2-oxo-5-phenyl-2,3-dihydro-1H-benzo[e][1,4]diazepin-3-yl)-amide]
IC50 (RSV; [1]): 5 µM
TC50 (2d) (Hep-2 cells): > 100 µM
TC50 (6d) (Hep-2 cells): >100

COc1cc(S(C)(=O)=O)ccc1C(=O)N[C@H]1N=C(c2ccccc2)c2ccccc2NC1=O [Example 75b, (S)-4-Methanesulfonyl-2-methoxy-N-(2-oxo-5-phenyl-2,3-dihydro-1H-benzo[e][1,4]diazepin-3-yl)-benzamide]
IC50 (RSV; [1]): 0.6 µM
TC50 (6d) (Hep-2 cells): >50

COc1ccc(OC)c(C(=O)NC2N=C(c3ccccc3)c3ccccc3NC2=O)c1 (centres unmarked) [Example 126, 2,5-Dimethoxy-N-(2-oxo-5-phenyl-2,3-dihydro-1H-benzo[e][1,4]diazepin-3-yl)-benzamide]
IC50 (RSV; [1]): 5.4 µM
TC50 (6d) (Hep-2 cells): >50

O=C(N[C@H]1N=C(c2ccccc2)c2ccccc2NC1=O)c1cc(F)cc2c1OCOC2 [Example 77b, (S)-6-Fluoro-4H-benzo[1,3]dioxine-8-carboxylic acid (2-oxo-5-phenyl-2,3-dihydro-1H-benzo[e][1,4]diazepin-3-yl)-amide]
IC50 (RSV; [1]): 0.5 µM
TC50 (6d) (Hep-2 cells): 33.2

Piperidine-1-carboxylic acid [5-(3-methoxy-phenyl)-2-oxo-5-phenyl-2,3-dihydro-1H-benzo[e][1,4]diazepin-3-yl]-amide [Example 166]
IC50 (RSV): 5 µM
TC50 (2d) (Hep-2 cells): > 100 µM
TC50 (6d) (Hep-2 cells): >100

O=C(NC1N=C(c2ccccc2)c2ccccc2NC1=O)c1ccccc1O (centres unmarked) [Example 80a, 2-Hydroxy-N-(2-oxo-5-phenyl-2,3-dihydro-1H-benzo[e][1,4]diazepin-3-yl)-benzamide]
IC50 (RSV; [1]): 8.7 µM
TC50 (6d) (Hep-2 cells): 33
